Experimental data from article PMC6273226, “New Isoxazolidine-Conjugates of Quinazolinones—Synthesis, Antiviral and Cytostatic Activity” (Molecules, 2016).
Where two headings read alike, the source gives them in different places.

Experiments:
[1] = tested on: human cytomegalovirus AD-169 strain; test: Antiviral activity against human cytomegalovirus AD-169 strain in HEL cell cultures; format: cell-based; conditions: Human betaherpesvirus 5, AD169
[2] = tested on: human cytomegalovirus Davis strain; test: Antiviral activity against human cytomegalovirus Davis strain in HEL cell cultures; format: cell-based; conditions: Human betaherpesvirus 5
[3] = tested on: human embryonic lung (HEL) cells; conditions: for Cytotoxicity Cell Morphology MCC: HEL cell cultures, minimum cytotoxic concentration; for cytotoxicity toward uninfected cells: at concentration up to 100 μM
[4] = tested on: TK+ VZV Oka strain; test: microbe, parasite or virus in culture; format: cell-based, varicella-zoster virus; conditions: Human alphaherpesvirus 3, HEL, read-out: Antiviral Activity EC50 TK+ VZV Strain
[5] = tested on: TK- VZV 07-1 strain; test: microbe, parasite or virus in culture; format: cell-based, varicella-zoster virus; conditions: for EC50: Human alphaherpesvirus 3, HEL, read-out: Antiviral Activity EC50 TK- VZV Strain; for activity toward TK- VZV strain: result in words
[6] = tested on: murine leukemia L1210; test: Cytostatic activity, inhibition of L1210 cell proliferation; format: cell-based; conditions: Mus musculus, L1210, 48 h, read-out: IC50 L1210
Protocol: (§1) The 50% cytostatic inhibitory concentration (IC50) causing a 50% decrease in cell proliferation was determined against murine leukemia L1210, human lymphocyte CEM, human cervix carcinoma HeLa and immortalized human dermal microvacsular endothelial cells (HMEC-1).
(§2) Murine leukemia (L1210), human T-lymphocyte (CEM), human cervix carcinoma (HeLa) and immortalized human dermal microvascular endothelial cells (HMEC-1) were suspended at 300,000–500,000 cells/mL of culture medium, and 100 μL of a cell suspension was added to 100 μL of an appropriate dilution of the test compounds in 200 μL-wells of 96-well microtiter plates. After incubation at 37 °C for two (L1210), three (CEM) or four (HeLa) days, the cell number was determined using a Coulter counter. The IC50 was defined as the compound concentration required to inhibit cell proliferation by 50%.

[7] = tested on: human T-lymphocyte (CEM); test: Cytostatic activity, inhibition of CEM cell proliferation; format: cell-based; conditions: 72 h, read-out: IC50 CEM
Protocol: as §1, §2

[8] = tested on: human cervix carcinoma (HeLa); test: Cytostatic activity, inhibition of HeLa cell proliferation; format: cell-based; conditions: 96 h, read-out: IC50 HeLa
Protocol: as §1, §2

[9] = tested on: immortalized human dermal microvascular endothelial cells (HMEC-1); test: Cytostatic activity, inhibition of HMEC-1 cell proliferation; format: cell-based; conditions: inhibition of cell proliferation by 50%
Protocol: as §1, §2

[10] = tested on: human cytomegalovirus; test: Antiviral activity against human cytomegalovirus, strain not given (AD-169 and Davis); format: cell-based; conditions: Human betaherpesvirus 5; range given for four compounds, strain not specified
[11] = tested on: tobacco mosaic virus (TMV); design: method as in PMID 23962399; conditions: ref [30]; cited from earlier work
[12] = tested on: Vero cells; design: method as in doi:10.1016/j.phytol.2015.02.007; conditions: ref [33]; cited from earlier work
[13] = tested on: various cancer cell lines; design: method as in doi:10.1002/hlca.201200433, PMID 21495659; conditions: ref [31],[32]; cited from earlier work
[14] = tested on: L1210, CEM, HeLa and HMEC-1 cells; test: Cytostatic activity against the tested cell lines (L1210, CEM, HeLa, HMEC-1), summarised in text; format: cell-based; conditions: for inhibition of cell proliferation at the highest tested concentration: highest tested concentration 250 μM, L1210, CEM
Protocol: as §1, §2

[15] = tested on: influenza A virus; design: method as in PMID 26017319; conditions: ref [34]; cited from earlier work

SMILES	EC50 [4]	EC50 [5]	IC50 [6]	IC50 [7]	IC50 [8]	IC50 [9]	Cytotoxicity Cell Morphology MCC ([3]; Table 2 (VZV))	also measured
Nc1nc(O)c2ncn(COC(CO)CO)c2n1 [Ganciclovir, reference compound]	–	–	–	–	–	–	–	EC50 [1]: 10.5 µM; EC50 [2]: 0.63 µM; Cytotoxicity Cell Morphology MCC ([3]; Table 3 (HCMV)): >350 μM
CCOP(=O)(OCC)[C@H]1C[C@H](c2nc3ccccc3c(=O)n2Cc2ccc(F)cc2)ON1C (relative stereo) [trans-11h, Diethyl trans-(5-(3-(4-fluorobenzyl)-4-oxo-3,4-dihydroquinazolin-2-yl)-2-methylisoxazolidin-3-yl)-phosphonate]	15.3 µM	> 20 µM	26 ± 1 µM	30 ± 12 µM	58 ± 5 µM	78 ± 1 µM	100 μM	activity toward TK- VZV strain [5]: no activity; cytotoxicity toward uninfected cells [3]: without exhibiting cytotoxicity
CCOP(=O)(OCC)[C@H]1C[C@H](c2nc3ccccc3c(=O)n2Cc2ccccc2[N+](=O)[O-])ON1C (relative stereo) [trans-11c, Diethyl trans-(2-methyl-5-(3-(2-nitrobenzyl)-4-oxo-3,4-dihydroquinazolin-2-yl)isoxazolidin-3-yl)-phosphonate]	46.5 µM	100 µM	87 ± 22 µM	76 ± 9 µM	97 µM	92 ± 1 µM	>100 μM	EC50 [1]: > 100 µM; EC50 [2]: 44.7 µM; EC50 [10]: 27 to 45 µM
CCOP(=O)(OCC)[C@H]1C[C@H](c2nc3ccccc3c(=O)n2Cc2ccc(F)cc2F)ON1C (relative stereo) [trans-11i/cis-11i (97:3), Diethyl trans-(5-(3-(2,4-difluorobenzyl)-4-oxo-3,4-dihydroquinazolin-2-yl)-2-methylisoxazolidin-3-yl)-phosphonate]	9.44 µM	> 20 µM	26 ± 2 µM	24 ± 8 µM	55 ± 10 µM	67 ± 4 µM	100 μM	activity toward TK- VZV strain [5]: no activity; cytotoxicity toward uninfected cells [3]: without exhibiting cytotoxicity
O=C(c1ccc(O)cc1)c1nc2ccccc2c(=O)[nH]1 [Compound 2]	–	–	–	–	–	–	–	melting point: 67 to 68 °C; inhibitory properties on the replication of tobacco mosaic virus (TMV) [11]: only slightly active
O=c1[nH]c(-c2c[nH]c3ccccc23)nc2ccccc12 [Compound 3]	–	–	–	–	–	–	–	cytotoxicity against Vero cells [12]: cytotoxic
CCOP(=O)(OCC)[C@H]1C[C@H](c2nc3ccccc3c(=O)n2Cc2cccc(F)c2)ON1C (relative stereo) [trans-11g, Diethyl trans-(5-(3-(3-fluorobenzyl)-4-oxo-3,4-dihydroquinazolin-2-yl)-2-methylisoxazolidin-3-yl)-phosphonate]	–	–	35 ± 12 µM	26 ± 6 µM	62 ± 9 µM	74 ± 3 µM	–	EC50 [1]: > 100 µM; EC50 [2]: 27.6 µM; EC50 [10]: 27 to 45 µM
CCOP(=O)(OCC)[C@H]1C[C@H](c2nc3ccccc3c(=O)n2Cc2ccccc2F)ON1C (relative stereo) [trans-11f/cis-11f (90:10), Diethyl trans-(5-(3-(2-fluorobenzyl)-4-oxo-3,4-dihydroquinazolin-2-yl)-2-methylisoxazolidin-3-yl)-phosphonate]	6.84 µM	> 20 µM	33 ± 7 µM	29 ± 13 µM	76 ± 11 µM	77 µM	100 μM	activity toward TK- VZV strain [5]: no activity; cytotoxicity toward uninfected cells [3]: without exhibiting cytotoxicity
O=c1[nH]c(Cc2ccc(O)cc2)nc2ccccc12 [Compound 1, 2-(4-hydroxybenzyl)quinazolin-4(3H)-one]	–	–	–	–	–	–	–	inhibitory properties on the replication of tobacco mosaic virus (TMV) [11]: strong inhibitory properties; cytotoxicity toward various cancer cell lines [13]: significant cytotoxicity
CCOP(=O)(OCC)[C@H]1C[C@H](c2nc3ccccc3c(=O)n2Cc2ccc([N+](=O)[O-])cc2)ON1C (relative stereo) [trans-11e/cis-11e (90:10), Diethyl trans-(2-methyl-5-(3-(4-nitrobenzyl)-4-oxo-3,4-dihydroquinazolin-2-yl)isoxazolidin-3-yl)-phosphonate]	34.2 µM	42.9 µM	59 ± 32 µM	34 ± 12 µM	76 ± 4 µM	102 ± 3 µM	100 μM	EC50 [1]: 44.7 µM; EC50 [2]: 20 µM; EC50 [10]: 27 to 45 µM
CCOP(=O)(OCC)[C@H]1C[C@H](c2nc3ccccc3c(=O)n2CC)ON1C (relative stereo) [trans-11k/cis-11k (97:3), Diethyl trans-(5-(3-ethyl-4-oxo-3,4-dihydroquinazolin-2-yl)-2-methylisoxazolidin-3-yl)phosphonate]	38.8 µM	41.6 µM	101 ± 17 µM	85 ± 13 µM	97 ± 10 µM	86 ± 11 µM	>100 μM	IC50 ([14]; range over L1210, CEM, read-out: IC50 towards the tested cell lines): 85 to 101 µM
CCOP(=O)(OCC)[C@H]1C[C@H](c2nc3ccccc3c(=O)n2Cc2cccc([N+](=O)[O-])c2)ON1C (relative stereo) [trans-11d/cis-11d (90:10), Diethyl trans-(2-methyl-5-(3-(3-nitrobenzyl)-4-oxo-3,4-dihydroquinazolin-2-yl)isoxazolidin-3-yl)-phosphonate]	–	–	28 ± 11 µM	21 ± 4 µM	50 ± 4 µM	58 µM	–	–
CCOP(=O)(OCC)[C@H]1C[C@H](c2nc3ccccc3c(=O)n2Cc2ccccc2)ON1C (relative stereo) [trans-11b/cis-11b (90:10), Diethyl trans-(5-(3-benzyl-4-oxo-3,4-dihydroquinazolin-2-yl)-2-methylisoxazolidin-3-yl)phosphonate]	–	–	49 ± 23 µM	28 ± 4 µM	82 ± 5 µM	83 ± 16 µM	–	EC50 [1]: 44.7 µM; EC50 [2]: > 20 µM; EC50 [10]: 27 to 45 µM
CCOP(=O)(OCC)[C@H]1C[C@H](c2nc3ccccc3c(=O)[nH]2)ON1C (relative stereo) [trans-11a, Diethyl trans-(2-methyl-5-(4-oxo-3,4-dihydroquinazolin-2-yl)isoxazolidin-3-yl)phosphonate]	–	–	> 250 µM	> 250 µM	> 250 µM	> 250 µM	–	inhibition of cell proliferation at the highest tested concentration [14]: did not inhibit cell proliferation
O=c1[nH]cc(F)c(=O)[nH]1 [5-Fluorouracil, reference compound]	–	–	–	–	–	–	–	IC50 ([6]; inhibition of cell proliferation by 50%, two days incubation): 0.33 ± 0.17 µM; IC50 ([7]; inhibition of cell proliferation by 50%, three days incubation): 18 ± 5 µM; IC50 ([8]; inhibition of cell proliferation by 50%, four days incubation): 0.54 ± 0.12 µM
CCOP(=O)(OCC)[C@H]1C[C@H](c2nc3ccccc3c(=O)n2C)ON1C (relative stereo) [trans-11j, Diethyl trans-(2-methyl-5-(3-methyl-4-oxo-3,4-dihydroquinazolin-2-yl)isoxazolidin-3-yl)phosphonate]	–	–	> 250 µM	> 250 µM	> 250 µM	> 250 µM	–	inhibition of cell proliferation at the highest tested concentration [14]: did not inhibit cell proliferation
O=c1[nH]c(-c2ccncc2)nc2ccccc12 [Compound 4]	–	–	–	–	–	–	–	activity against influenza A virus [15]: slight activity
O=c1c2ccccc2nc(-c2ccncc2)n1CCCN1CCOCC1 [Compound 5]	–	–	–	–	–	–	–	activity against influenza A virus [15]: slight activity
O=c1c2ccccc2nc(-c2ccncc2)n1CCCn1ccnc1 [Compound 6]	–	–	–	–	–	–	–	activity against influenza A virus [15]: slight activity
O=c1[nH]c(=O)n([C@H]2C[C@H](O)[C@@H](CO)O2)cc1/C=C/Br [Brivudin, reference compound]	0.019 µM	25.6 µM	–	–	–	–	>100 μM	–
Nc1ccn(C[C@@H](CO)OCP(=O)(O)O)c(=O)n1 [Cidofovir, reference compound]	–	–	–	–	–	–	–	EC50 [1]: 1.49 µM; EC50 [2]: 0.23 µM; Cytotoxicity Cell Morphology MCC ([3]; Table 3 (HCMV)): >300 μM
